Tests used:
Assay in all cases: Cellular growth inhibition (CellTiter Glo viability assay)
Assay type in all cases: cell-based
[1] = tested on: HCC2279 NSCLC cell line; conditions: Homo sapiens
[2] = tested on: H1395 NSCLC cell line; conditions: Homo sapiens
[3] = tested on: H322M NSCLC cell line; conditions: Homo sapiens, NCI-H322M
[4] = tested on: H1648 NSCLC cell line; conditions: Homo sapiens
[5] = tested on: H2030 NSCLC cell line; conditions: Homo sapiens
[6] = tested on: H2172 NSCLC cell line; conditions: Homo sapiens
[7] = tested on: H520 NSCLC cell line; conditions: Homo sapiens
[8] = tested on: H2009 NSCLC cell line; conditions: Homo sapiens
[9] = tested on: PC9 NSCLC cell line; conditions: Homo sapiens
[10] = tested on: H157 NSCLC cell line; conditions: Homo sapiens
[11] = tested on: HCC78 NSCLC cell line; conditions: Homo sapiens
[12] = tested on: LouNH91 NSCLC cell line; conditions: Homo sapiens
[13] = tested on: HCC366 NSCLC cell line; conditions: Homo sapiens
[14] = tested on: H2077 NSCLC cell line; conditions: Homo sapiens
[15] = tested on: H1666 NSCLC cell line; conditions: Homo sapiens
[16] = tested on: H460 NSCLC cell line; conditions: Homo sapiens
[17] = tested on: HCC4006 NSCLC cell line; conditions: Homo sapiens
[18] = tested on: Calu6 NSCLC cell line; conditions: Homo sapiens
[19] = read-out: Sensitivity Bosutinib

COc1cc(Nc2c(C#N)cnc3cc(OCCCN4CCN(C)CC4)c(OC)cc23)c(Cl)cc1Cl [bosutinib, 4-(2,4-dichloro-5-methoxyphenylamino)-6-methoxy-7-(3-(4-methylpiperazin-1-yl)propoxy)quinoline-3-carbonitrile]
GI50 ([1]; 96 h): 3250 nM
IC50 [1, 19]: > 1500 nM
GI50 ([2]; NCI-H1395, 96 h): 4720 nM
IC50 ([2]; NCI-H1395, read-out: Sensitivity Bosutinib): > 1500 nM
GI50 ([3]; 96 h): 528 nM
IC50 [3, 19]: < 1500 nM
GI50 ([4]; NCI-H1648, 96 h): 3720 nM
IC50 ([4]; NCI-H1648, read-out: Sensitivity Bosutinib): > 1500 nM
GI50 ([5]; NCI-H2030, 96 h): 896 nM
IC50 ([5]; NCI-H2030, read-out: Sensitivity Bosutinib): < 1500 nM
GI50 ([6]; NCI-H2172, 96 h): 2590 nM
IC50 ([6]; NCI-H2172, read-out: Sensitivity Bosutinib): > 1500 nM
GI50 ([7]; NCI-H520, 96 h): 2640 nM
IC50 ([7]; NCI-H520, read-out: Sensitivity Bosutinib): > 1500 nM
GI50 ([8]; NCI-H2009, 96 h): 2330 nM
IC50 ([8]; NCI-H2009, read-out: Sensitivity Bosutinib): > 1500 nM
GI50 ([9]; 96 h): 234 nM
IC50 ([9]; PC-9, read-out: Sensitivity Bosutinib): < 1500 nM
GI50 ([10]; NCI-H157, 96 h): 1810 nM
IC50 ([10]; NCI-H157, read-out: Sensitivity Bosutinib): > 1500 nM
GI50 ([11]; HCC78, 96 h): 3040 nM
IC50 ([11]; HCC78, read-out: Sensitivity Bosutinib): > 1500 nM
GI50 ([12]; LOU-NH91, 96 h): 186 nM
IC50 ([12]; LOU-NH91, read-out: Sensitivity Bosutinib): < 1500 nM
GI50 ([13]; HCC366, 96 h): 1270 nM
IC50 ([13]; HCC366, read-out: Sensitivity Bosutinib): < 1500 nM
GI50 ([14]; 96 h): 3790 nM
IC50 [14, 19]: > 1500 nM
GI50 ([15]; NCI-H1666, 96 h): 1080 nM
IC50 ([15]; NCI-H1666, read-out: Sensitivity Bosutinib): < 1500 nM
GI50 ([16]; NCI-H460, 96 h): 1370 nM
IC50 ([16]; NCI-H460, read-out: Sensitivity Bosutinib): < 1500 nM
GI50 ([17]; HCC4006, 96 h): 120 nM
IC50 ([17]; HCC4006, read-out: Sensitivity Bosutinib): < 1500 nM
GI50 ([18]; Calu-6, 96 h): 2130 nM
IC50 ([18]; Calu-6, read-out: Sensitivity Bosutinib): > 1500 nM

From patent publication US9328386B2, “Markers for susceptibility to an inhibitor of an Src-family kinase” (Evotec (München) GmbH, priority 2011, dated 2016)
